Several values for one entry are separate records, joined by “and”; a condition that tells them apart may be missing. Identical values can stand only once.
Columns and labels:
[1] = target: T1, Aromatase (Homo sapiens, UniProt P11511); assay: Binding affinity for Cytochrome P450 19A1
T1 sequence (P11511 whole entry): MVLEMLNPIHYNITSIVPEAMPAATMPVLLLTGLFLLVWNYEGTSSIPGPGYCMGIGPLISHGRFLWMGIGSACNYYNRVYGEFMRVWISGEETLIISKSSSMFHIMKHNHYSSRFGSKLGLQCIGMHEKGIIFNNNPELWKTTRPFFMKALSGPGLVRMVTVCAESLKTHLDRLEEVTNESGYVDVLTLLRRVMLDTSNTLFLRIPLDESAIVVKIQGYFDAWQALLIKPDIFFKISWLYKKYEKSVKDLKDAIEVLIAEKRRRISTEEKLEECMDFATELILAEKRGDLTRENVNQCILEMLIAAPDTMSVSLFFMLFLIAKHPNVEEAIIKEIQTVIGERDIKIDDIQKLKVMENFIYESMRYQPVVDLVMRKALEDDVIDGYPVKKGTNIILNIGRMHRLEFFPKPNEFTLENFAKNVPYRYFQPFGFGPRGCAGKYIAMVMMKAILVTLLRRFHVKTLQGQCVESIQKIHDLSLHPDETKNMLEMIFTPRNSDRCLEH

[2] = system: Cricetinae gen. sp.; assay: Effect on total serum cholesterol in male hamsters at a dose of 10 mg/kg orally administered for 14 days; format: functional, Cricetulus griseus; settings: route oral
[3] = system: Cricetinae gen. sp.; assay: Percentage lowering of the total serum cholesterol in male hamsters at a dose of 100 […] orally administered for 3 days; format: functional, Cricetulus griseus
[4] = system: Cricetinae gen. sp.; assay: Percentage lowering of the total serum cholesterol in male hamsters at a dose of 25 mg/dL orally administered for 14 days; format: functional, Cricetulus griseus
[5] = system: Cricetinae gen. sp.; assay: Percentage lowering of the total serum cholesterol in male hamsters at a dose of 30 mg/dL orally administered for 3 days; format: functional, Cricetulus griseus
[6] = system: Cricetinae gen. sp.; assay: Percentage lowering of the total serum cholesterol in male hamsters at a dose of 5 mg/dL orally administered for 14 days; format: functional, Cricetulus griseus
[7] = system: Cricetinae gen. sp.; assay: Effect on total serum cholesterol in male hamsters at a dose of 10 mg/kg orally administered for 3 days; format: functional, Cricetulus griseus; settings: route oral
[8] = system: Cricetinae gen. sp.; assay: Effect on total serum cholesterol in male hamsters at a dose of 100 mg/kg orally administered for 3 days; format: functional, Cricetulus griseus; settings: route oral
[9] = system: Cricetinae gen. sp.; assay: Effect on total serum cholesterol in male hamsters at a dose of 25 mg/kg orally administered for 14 days; format: functional, Cricetulus griseus; settings: route oral
[10] = system: Cricetinae gen. sp.; assay: Effect on total serum cholesterol in male hamsters at a dose of 30 mg/kg orally administered for 3 days; format: functional, Cricetulus griseus; settings: route oral
[11] = system: Cricetinae gen. sp.; assay: Effect on total serum cholesterol in male hamsters at a dose of 5 mg/kg orally administered for 14 days; format: functional, Cricetulus griseus; settings: route oral
[12] = system: Cricetinae gen. sp.; assay: Effect on total serum cholesterol in male hamsters at a dose of 50 mg/kg orally administered for 14 days; format: functional, Cricetulus griseus; settings: route oral
[13] = system: Cricetinae gen. sp.; assay: Percentage lowering of the total serum cholesterol in male hamsters at a dose of 50 mg/dL orally administered for 14 days; format: functional, Cricetulus griseus
[14] = system: Cricetinae gen. sp.; assay: Percentage lowering of the total serum cholesterol in male hamsters at a dose of 10 […] orally administered for 14 days; format: functional, Cricetulus griseus
[15] = system: Cricetinae gen. sp.; assay: Percentage lowering of the total serum cholesterol in male hamsters at a dose of 10 […] orally administered for 3 days; format: functional, Cricetulus griseus
[16] = Inhibition of lanosterol 14-alpha-demethylation in hepatic microsomes from hamster; format: functional, Cricetulus griseus, Liver
[17] = Inhibition of lanosterol 14-alpha-demethylation in hepatic microsomes from human; format: functional, Liver
[18] = Inhibition of lanosterol 14-alpha-demethylation in hepatic microsomes from rat; format: functional, Liver
[19] = species on record: Homo sapiens; assay: Inhibition of cellular cholesterol biosynthesis using human fibroblasts in tissue culture; format: functional, organism-based
[20] = target: T2, Cytochrome P450 11B1, mitochondrial (Homo sapiens, UniProt P15538); assay: Binding affinity for corticoid 11-beta-hydroxylase
T2 sequence (P15538 whole entry): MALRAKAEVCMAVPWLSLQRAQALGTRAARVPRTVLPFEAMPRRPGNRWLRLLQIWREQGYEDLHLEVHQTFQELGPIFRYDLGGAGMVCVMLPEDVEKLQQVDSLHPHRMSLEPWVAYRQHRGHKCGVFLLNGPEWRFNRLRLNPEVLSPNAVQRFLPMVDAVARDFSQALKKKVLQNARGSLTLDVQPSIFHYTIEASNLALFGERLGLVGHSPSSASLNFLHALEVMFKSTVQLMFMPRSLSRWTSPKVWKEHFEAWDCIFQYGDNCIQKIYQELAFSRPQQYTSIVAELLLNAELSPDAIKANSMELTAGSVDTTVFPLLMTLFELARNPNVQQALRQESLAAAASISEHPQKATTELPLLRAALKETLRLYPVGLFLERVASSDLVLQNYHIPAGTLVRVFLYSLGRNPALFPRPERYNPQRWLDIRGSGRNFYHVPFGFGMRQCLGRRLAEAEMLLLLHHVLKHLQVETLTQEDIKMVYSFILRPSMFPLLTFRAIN

[21] = target: T3, Steroid 17-alpha-hydroxylase/17,20 lyase (Homo sapiens, UniProt P05093); assay: Binding affinity for progesterone 17-alpha,20-lyase
T3 sequence (P05093 whole entry): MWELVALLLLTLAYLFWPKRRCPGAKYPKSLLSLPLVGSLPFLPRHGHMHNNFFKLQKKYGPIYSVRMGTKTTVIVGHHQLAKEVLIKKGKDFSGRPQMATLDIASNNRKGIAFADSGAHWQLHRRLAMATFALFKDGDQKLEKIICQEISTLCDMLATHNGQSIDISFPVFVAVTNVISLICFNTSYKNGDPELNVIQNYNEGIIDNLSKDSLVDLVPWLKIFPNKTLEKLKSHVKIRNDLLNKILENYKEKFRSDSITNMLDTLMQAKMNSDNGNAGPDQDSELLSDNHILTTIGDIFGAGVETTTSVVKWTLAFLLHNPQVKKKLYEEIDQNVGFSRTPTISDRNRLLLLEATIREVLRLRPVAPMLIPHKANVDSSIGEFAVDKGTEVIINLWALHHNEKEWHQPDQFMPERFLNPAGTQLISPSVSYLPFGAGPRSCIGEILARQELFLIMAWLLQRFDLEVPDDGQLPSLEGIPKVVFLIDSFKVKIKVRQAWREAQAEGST

[22] = target: Cytochrome P450 3A4 (Homo sapiens, UniProt P08684); assay: Binding affinity for progesterone 6-beta-hydroxylase of hepatic microsomes; format: ADME
[23] = target: T3, Steroid 17-alpha-hydroxylase/17,20 lyase; assay: Binding affinity for […] 17-alpha-hydroxylase
[24] = system: Cricetinae gen. sp.; assay: Effect on total serum cholesterol in male hamsters at a dose of 100 mg/kg orally administered for 14 days; format: functional, Cricetulus griseus; settings: route oral
[25] = system: Cricetinae gen. sp.; assay: Effect on total serum cholesterol in male hamsters at a dose of 200 mg/kg orally administered for 14 days; format: functional, Cricetulus griseus; settings: route oral
[26] = system: Cricetinae gen. sp.; assay: Percentage lowering of the total serum cholesterol in male hamsters at a dose of 100 […] orally administered for 14 days; format: functional, Cricetulus griseus
[27] = system: Cricetinae gen. sp.; assay: Percentage lowering of the total serum cholesterol in male hamsters at a dose of 200 […] orally administered for 14 days; format: functional, Cricetulus griseus
[28] = system: Cricetinae gen. sp.; assay: Percentage increase of the total serum cholesterol in male hamsters at a dose of 25 […] orally administered for 14 days; format: functional, Cricetulus griseus
[29] = target: T4, Lanosterol 14-alpha demethylase (Rattus norvegicus, UniProt Q64654); assay: Inhibition of lanosterol 14-alpha-demethylase of rat hepatic microsomes
T4 sequence (Q64654 whole entry): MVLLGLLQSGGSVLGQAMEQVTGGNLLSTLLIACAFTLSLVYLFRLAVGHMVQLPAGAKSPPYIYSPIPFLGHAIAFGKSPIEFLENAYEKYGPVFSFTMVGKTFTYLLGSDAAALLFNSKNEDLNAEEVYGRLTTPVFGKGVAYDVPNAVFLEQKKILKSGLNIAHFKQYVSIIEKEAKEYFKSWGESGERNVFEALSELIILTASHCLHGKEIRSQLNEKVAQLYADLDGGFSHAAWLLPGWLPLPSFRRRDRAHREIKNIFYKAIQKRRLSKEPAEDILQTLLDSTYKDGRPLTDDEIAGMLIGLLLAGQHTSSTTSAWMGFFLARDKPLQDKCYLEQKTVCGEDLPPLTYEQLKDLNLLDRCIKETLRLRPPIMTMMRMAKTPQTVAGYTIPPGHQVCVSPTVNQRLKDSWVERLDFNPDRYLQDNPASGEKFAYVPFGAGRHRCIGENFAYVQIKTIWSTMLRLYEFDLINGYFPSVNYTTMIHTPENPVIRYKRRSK

[30] = system: Cricetinae gen. sp.; assay: Percentage lowering of the total serum cholesterol in male hamsters at a dose of 150 […] orally administered for 14 days; format: functional, Cricetulus griseus
[31] = system: Cricetinae gen. sp.; assay: Effect on total serum cholesterol in male hamsters at a dose of 150 mg/kg orally administered for 14 days; format: functional, Cricetulus griseus; settings: route oral

Sequence of Cytochrome P450 3A4 (P08684 whole entry): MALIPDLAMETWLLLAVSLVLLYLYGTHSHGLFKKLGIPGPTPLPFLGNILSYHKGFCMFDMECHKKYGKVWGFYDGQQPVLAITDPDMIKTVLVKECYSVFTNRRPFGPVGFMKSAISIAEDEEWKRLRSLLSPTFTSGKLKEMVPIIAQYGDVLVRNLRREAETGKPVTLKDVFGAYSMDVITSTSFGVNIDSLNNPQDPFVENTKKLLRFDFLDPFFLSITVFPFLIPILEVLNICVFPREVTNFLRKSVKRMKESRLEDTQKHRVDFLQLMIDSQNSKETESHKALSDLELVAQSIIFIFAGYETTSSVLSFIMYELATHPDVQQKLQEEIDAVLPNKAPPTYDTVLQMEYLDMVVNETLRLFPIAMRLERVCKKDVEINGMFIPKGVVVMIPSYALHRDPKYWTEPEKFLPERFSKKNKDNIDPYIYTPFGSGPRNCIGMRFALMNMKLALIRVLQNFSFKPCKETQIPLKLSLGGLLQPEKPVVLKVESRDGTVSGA

| Structure (SMILES) | Ki [1] | TC [2] | Lowering [3] | Lowering [4] | Lowering [5] | Lowering [6] | TC [7] | TC [8] | TC [9] | TC [10] | TC [11] | TC [12] | Lowering [13] | Lowering [14] | Lowering [15] | IC50 [19] | Ki [20] | Ki [21] | Ki [22] | Ki [23] | further results |
| --- | --- | --- | --- | --- | --- | --- | --- | --- | --- | --- | --- | --- | --- | --- | --- | --- | --- | --- | --- | --- | --- |
| Nc1ccc(SC[C@@H]2CO[C@](CCc3ccc(Cl)cc3)(Cn3ccnc3)O2)cc1 [AZALANSTAT] | 7.6 nM | 104 mg/dL | 62% | 30% | 36% | 2% | 85.1 mg/dL | 41.8 mg/dL | 82.9 mg/dL | 71 mg/dL | 115.5 mg/dL | 74.7 mg/dL | 37% | 12% | 23% | 0.09 nM | 35 nM | 447 nM | 28 nM | 1620 nM | Ki [16]: 1.4 nM; Ki [17]: 0.79 nM; Ki [18]: 2.5 nM |
| CC(=O)N1CCN(c2ccc(OCC3COC(Cn4ccnc4)(c4ccc(Cl)cc4Cl)O3)cc2)CC1 (centres undefined) [KETOCONAZOLE] | – | – | – | – | – | – | – | – | 125.2 mg/dL | – | – | 111.4 mg/dL | 6% | – | – | 37 nM | – | – | – | – | TC [24]: 105 mg/dL; TC [25]: 83.1 mg/dL; Lowering [26]: 11%; Lowering [27]: 30%; Increase [28]: 6%; Ki [29]: 65 nM |
| Nc1ccc(SC[C@H]2CO[C@@](CCc3ccc(Cl)cc3)(Cn3ccnc3)O2)cc1 | 13 nM | – | 22% | – | 13% | – | 105.7 mg/dL | 86 mg/dL | – | 96.4 mg/dL | – | – | – | – | 5% | 8 nM | 15 nM | 54 nM | 33 nM | 109 nM | – |
| CC[C@H](C)C(=O)O[C@H]1C[C@@H](C)C=C2C=C[C@H](C)[C@H](CC[C@@H]3C[C@@H](O)CC(=O)O3)[C@H]21 [LOVASTATIN] | – | 102.8 mg/dL | – | 6% and 10% | – | 5% | – | – | – | – | 112.2 mg/dL | – | 16% and 19% | 13% | – | – | – | – | – | – | Lowering [30]: 37%; TC [24]: 94.9 mg/dL; TC [31]: 80.3 mg/dL; TC [25]: 79.5 mg/dL; TC ([9]; 25 mg/kg): 111.2 mg/dL and 114 mg/dL; TC ([12]; 50 mg/kg): 99.4 mg/dL and 102 mg/dL; Lowering [26]: 26%; Lowering [27]: 38% |

— ChEMBL document CHEMBL1127068, “Selective inhibition of mammalian lanosterol 14 alpha-demethylase: a possible strategy for cholesterol lowering” (J Med Chem, 1993)
